Experimental data: the supplement of paper PMC8741786
Converted amounts (≈) assume the structure as drawn.

Test system: Neisseria subflava/flavescens/perflava
Assay: minimum inhibitory concentration (ETEST)
Details: population: general population, antibiotic use in previous 6 months: No
Experimental: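 Oropharyngeal Neisseria isolates from MSM and employees in Belgium were identified to species by MALDI-TOF MS. MICs of azithromycin, ceftriaxone and ciprofloxacin were determined by ETEST on GC agar after 24 h at 36.5 °C and 5-7% CO2, in mg/L. Values beyond the strip range are reported as >256 (azithromycin) or <0.016 (ceftriaxone); isolates that did not grow are NA.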

`CC[C@H]1OC(=O)[C@H](C)[C@@H](O[C@H]2C[C@@](C)(OC)[C@@H](O)[C@H](C)O2)[C@H](C)[C@@H](O[C@@H]2O[C@H](C)C[C@H](N(C)C)[C@H]2O)[C@](C)(O)C[C@@H](C)CN(C)[C@H](C)[C@@H](O)[C@]1(C)O` [azithromycin] showed a minimum inhibitory concentration (isolate id (sample isolate): Co000765_4) of 3 µg/mL (≈ 4.01 µM), a minimum inhibitory concentration (isolate id (sample isolate): Co000766_1) of 6 µg/mL (≈ 8.01 µM) and a minimum inhibitory concentration (isolate id (sample isolate): Co000766_3) of 1 µg/mL (≈ 1.34 µM). For the same compound, the minimum inhibitory concentration (isolate id (sample isolate): Co000767_1) was 1 µg/mL (≈ 1.34 µM), the minimum inhibitory concentration (isolate id (sample isolate): Co000767_2) was 6 µg/mL (≈ 8.01 µM) and the minimum inhibitory concentration (isolate id (sample isolate): Co000767_4) was 1.5 µg/mL (≈ 2 µM). For the same compound, the minimum inhibitory concentration (isolate id (sample isolate): Co000767_5) was 1.5 µg/mL (≈ 2 µM), the minimum inhibitory concentration (isolate id (sample isolate): Co000767_6) was 0.75 µg/mL (≈ 1 µM) and the minimum inhibitory concentration (isolate id (sample isolate): Co000767_7) was 1.5 µg/mL (≈ 2 µM). The minimum inhibitory concentration (isolate id (sample isolate): Co000768_1) was 2 µg/mL (≈ 2.67 µM), the minimum inhibitory concentration (isolate id (sample isolate): Co000768_2) was 3 µg/mL (≈ 4.01 µM) and the minimum inhibitory concentration (isolate id (sample isolate): Co000769_1) was 4 µg/mL (≈ 5.34 µM). It also gave a minimum inhibitory concentration (isolate id (sample isolate): Co000769_2) of 2 µg/mL (≈ 2.67 µM), a minimum inhibitory concentration (isolate id (sample isolate): Co000769_4) of 4 µg/mL (≈ 5.34 µM) and a minimum inhibitory concentration (isolate id (sample isolate): Co000770_2) of 2 µg/mL (≈ 2.67 µM). For the same compound, the minimum inhibitory concentration (isolate id (sample isolate): Co000770_4) was 4 µg/mL (≈ 5.34 µM), the minimum inhibitory concentration (isolate id (sample isolate): Co000770_6) was 3 µg/mL (≈ 4.01 µM) and the minimum inhibitory concentration (isolate id (sample isolate): Co000771_2) was 6 µg/mL (≈ 8.01 µM). It also gave a minimum inhibitory concentration (isolate id (sample isolate): Co000771_3) of 6 µg/mL (≈ 8.01 µM), a minimum inhibitory concentration (isolate id (sample isolate): Co000771_5) of 3 µg/mL (≈ 4.01 µM) and a minimum inhibitory concentration (isolate id (sample isolate): Co000772_1) of 2 µg/mL (≈ 2.67 µM). For the same compound, the minimum inhibitory concentration (isolate id (sample isolate): Co000772_2) was 3 µg/mL (≈ 4.01 µM), the minimum inhibitory concentration (isolate id (sample isolate): Co000772_4) was 4 µg/mL (≈ 5.34 µM) and the minimum inhibitory concentration (isolate id (sample isolate): Co000772_5) was 3 µg/mL (≈ 4.01 µM). It also gave a minimum inhibitory concentration (isolate id (sample isolate): Co000772_6) of 4 µg/mL (≈ 5.34 µM), a minimum inhibitory concentration (isolate id (sample isolate): Co000773_1) of 2 µg/mL (≈ 2.67 µM) and a minimum inhibitory concentration (isolate id (sample isolate): Co000773_2) of 3 µg/mL (≈ 4.01 µM). For the same compound, the minimum inhibitory concentration (isolate id (sample isolate): Co000774_2) was 3 µg/mL (≈ 4.01 µM), the minimum inhibitory concentration (isolate id (sample isolate): Co000775_1) was 2 µg/mL (≈ 2.67 µM) and the minimum inhibitory concentration (isolate id (sample isolate): Co000775_2) was 4 µg/mL (≈ 5.34 µM). The minimum inhibitory concentration (isolate id (sample isolate): Co000775_3) was 0.094 µg/mL (≈ 0.126 µM), the minimum inhibitory concentration (isolate id (sample isolate): Co000776_2) was 32 µg/mL (≈ 42.7 µM) and the minimum inhibitory concentration (isolate id (sample isolate): Co000776_3) was 24 µg/mL (≈ 32 µM). For the same compound, the minimum inhibitory concentration (isolate id (sample isolate): Co000777_1) was 2 µg/mL (≈ 2.67 µM), the minimum inhibitory concentration (isolate id (sample isolate): Co000777_2) was 0.25 µg/mL (≈ 0.334 µM) and the minimum inhibitory concentration (isolate id (sample isolate): Co000777_4) was > 256 µg/mL. For the same compound, the minimum inhibitory concentration (isolate id (sample isolate): Co000778_1) was 3 µg/mL (≈ 4.01 µM), the minimum inhibitory concentration (isolate id (sample isolate): Co000778_2) was 2 µg/mL (≈ 2.67 µM) and the minimum inhibitory concentration (isolate id (sample isolate): Co000778_3) was 4 µg/mL (≈ 5.34 µM). For the same compound, the minimum inhibitory concentration (isolate id (sample isolate): Co000780_4) was 2 µg/mL (≈ 2.67 µM), the minimum inhibitory concentration (isolate id (sample isolate): Co000781_1) was 1.5 µg/mL (≈ 2 µM) and the minimum inhibitory concentration (isolate id (sample isolate): Co000781_3) was 4 µg/mL (≈ 5.34 µM). For the same compound, the minimum inhibitory concentration (isolate id (sample isolate): Co000781_4) was 3 µg/mL (≈ 4.01 µM), the minimum inhibitory concentration (isolate id (sample isolate): Co000782_2) was 8 µg/mL (≈ 10.7 µM) and the minimum inhibitory concentration (isolate id (sample isolate): Co000782_3) was 8 µg/mL (≈ 10.7 µM). It also gave a minimum inhibitory concentration (isolate id (sample isolate): Co000782_4) of 8 µg/mL (≈ 10.7 µM), a minimum inhibitory concentration (isolate id (sample isolate): Co000783_1) of 4 µg/mL (≈ 5.34 µM) and a minimum inhibitory concentration (isolate id (sample isolate): Co000783_2) of 1.5 µg/mL (≈ 2 µM). It also gave a minimum inhibitory concentration (isolate id (sample isolate): Co000783_5) of 2 µg/mL (≈ 2.67 µM), a minimum inhibitory concentration (isolate id (sample isolate): Co000784_1) of 1.5 µg/mL (≈ 2 µM) and a minimum inhibitory concentration (isolate id (sample isolate): Co000784_2) of 4 µg/mL (≈ 5.34 µM). It also gave a minimum inhibitory concentration (isolate id (sample isolate): Co000784_5) of 4 µg/mL (≈ 5.34 µM), a minimum inhibitory concentration (isolate id (sample isolate): Co000785_1) of 1 µg/mL (≈ 1.34 µM) and a minimum inhibitory concentration (isolate id (sample isolate): Co000785_2) of 1.5 µg/mL (≈ 2 µM). It also gave a minimum inhibitory concentration (isolate id (sample isolate): Co000785_3) of 2 µg/mL (≈ 2.67 µM), a minimum inhibitory concentration (isolate id (sample isolate): Co000785_4) of 1 µg/mL (≈ 1.34 µM) and a minimum inhibitory concentration (isolate id (sample isolate): Co000786_1) of 2 µg/mL (≈ 2.67 µM). For the same compound, the minimum inhibitory concentration (isolate id (sample isolate): Co000786_2) was 4 µg/mL (≈ 5.34 µM), the minimum inhibitory concentration (isolate id (sample isolate): Co000787_1) was 2 µg/mL (≈ 2.67 µM) and the minimum inhibitory concentration (isolate id (sample isolate): Co000787_2) was 6 µg/mL (≈ 8.01 µM). For the same compound, the minimum inhibitory concentration (isolate id (sample isolate): Co000787_4) was 6 µg/mL (≈ 8.01 µM), the minimum inhibitory concentration (isolate id (sample isolate): Co000788_2) was 3 µg/mL (≈ 4.01 µM) and the minimum inhibitory concentration (isolate id (sample isolate): Co000788_3) was 3 µg/mL (≈ 4.01 µM). It also gave a minimum inhibitory concentration (isolate id (sample isolate): Co000788_5) of 3 µg/mL (≈ 4.01 µM), a minimum inhibitory concentration (isolate id (sample isolate): Co000789_1) of 6 µg/mL (≈ 8.01 µM) and a minimum inhibitory concentration (isolate id (sample isolate): Co000790_2) of 1 µg/mL (≈ 1.34 µM). It also gave a minimum inhibitory concentration (isolate id (sample isolate): Co000790_4) of 1.5 µg/mL (≈ 2 µM).
